Experimental data published in PubChem BioAssay (NCI).
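Dose response: 5 concentrations. Exposure: 48 h. Format: 96-well plates. Endpoint: linear interpolation; highest concentration if not reached. Here, GI50 denotes the concentration required for 50% inhibition of growth. Definition used: TGI = concentration required for complete inhibition of growth.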

Columns and labels:
Assay in all cases: NCI tumour cell line growth inhibition, 48 h
BT-549 breast = test system: BT-549 breast
UACC-62 melanoma = test system: UACC-62 melanoma
SK-MEL-5 melanoma = test system: SK-MEL-5 melanoma
PC-3 prostate = test system: PC-3 prostate
HOP-92 NSCLC = test system: HOP-92 NSCLC
HOP-62 NSCLC = test system: HOP-62 NSCLC
RXF 393 renal = test system: RXF 393 renal
U251 CNS = test system: U251 CNS
SR leukemia = test system: SR leukemia
MOLT-4 leukemia = test system: MOLT-4 leukemia
SK-MEL-2 melanoma = test system: SK-MEL-2 melanoma
DU-145 prostate = test system: DU-145 prostate
SF-268 CNS = test system: SF-268 CNS
MDA-MB-231 breast = test system: MDA-MB-231 breast
MALME-3M melanoma = test system: MALME-3M melanoma
TK-10 renal = test system: TK-10 renal
EKVX NSCLC = test system: EKVX NSCLC
K-562 leukemia = test system: K-562 leukemia
M14 melanoma = test system: M14 melanoma
HCT-116 colon = test system: HCT-116 colon
NCI-H522 lung = test system: NCI-H522 lung
ACHN renal = test system: ACHN renal
HCT-15 colon = test system: HCT-15 colon
MCF7 breast = test system: MCF7 breast
CAKI-1 renal = test system: CAKI-1 renal
MDA-MB-435 = test system: MDA-MB-435
RPMI-8226 leukemia = test system: RPMI-8226 leukemia
786-0 renal = test system: 786-0 renal
CCRF-CEM leukemia = test system: CCRF-CEM leukemia
HT29 colon = test system: HT29 colon
IGROV1 ovarian = test system: IGROV1 ovarian
OVCAR-8 ovarian = test system: OVCAR-8 ovarian
T-47D breast = test system: T-47D breast
HCC-2998 colon = test system: HCC-2998 colon
SW-620 colon = test system: SW-620 colon
NCI-H23 lung = test system: NCI-H23 lung
OVCAR-3 ovarian = test system: OVCAR-3 ovarian
OVCAR-4 ovarian = test system: OVCAR-4 ovarian
UO-31 renal = test system: UO-31 renal
SN12C renal = test system: SN12C renal
A498 renal = test system: A498 renal
NCI/ADR-RES ovarian = test system: NCI/ADR-RES ovarian
HS 578T breast = test system: HS 578T breast
A549 NSCLC = test system: A549 NSCLC
SNB-19 CNS = test system: SNB-19 CNS
KM12 colon = test system: KM12 colon
COLO 205 colon = test system: COLO 205 colon
NCI-H460 lung = test system: NCI-H460 lung
UACC-257 melanoma = test system: UACC-257 melanoma
SF-539 CNS = test system: SF-539 CNS
SF-295 CNS = test system: SF-295 CNS
SK-OV-3 ovarian = test system: SK-OV-3 ovarian
OVCAR-5 ovarian = test system: OVCAR-5 ovarian
SK-MEL-28 melanoma = test system: SK-MEL-28 melanoma
NCI-H226 lung = test system: NCI-H226 lung
SNB-75 CNS = test system: SNB-75 CNS

SMILES: C#C[C@]1(O)CC[C@H]2[C@@H]3CC=C4c5sc(Nc6ccc(C)cn6)nc5CC[C@]4(C)[C@H]3CC[C@@]21C
- GI50 (BT-549 breast): 566 nM
- TGI (BT-549 breast): 3050 nM
- GI50 (UACC-62 melanoma): 363 nM
- TGI (UACC-62 melanoma): 1430 nM
- GI50 (SK-MEL-5 melanoma): 1270 nM
- TGI (SK-MEL-5 melanoma): 2580 nM
- GI50 (PC-3 prostate): 379 nM
- TGI (PC-3 prostate): 5080 nM
- GI50 (HOP-92 NSCLC): 877 nM
- TGI (HOP-92 NSCLC): 4130 nM
- GI50 (HOP-62 NSCLC): 1070 nM
- TGI (HOP-62 NSCLC): 4340 nM
- GI50 (RXF 393 renal): 53.6 nM
- TGI (RXF 393 renal): 261 nM
- GI50 (U251 CNS): 537 nM
- TGI (U251 CNS): 5770 nM
- GI50 (SR leukemia): 343 nM
- GI50 (MOLT-4 leukemia): 300 nM
- GI50 (SK-MEL-2 melanoma): 741 nM
- TGI (SK-MEL-2 melanoma): 3230 nM
- GI50 (DU-145 prostate): 1840 nM
- TGI (DU-145 prostate): 11500 nM
- GI50 (SF-268 CNS): 1070 nM
- TGI (SF-268 CNS): 10600 nM
- GI50 (MDA-MB-231 breast): 1280 nM
- TGI (MDA-MB-231 breast): 4000 nM
- GI50 (MALME-3M melanoma): 559 nM
- TGI (MALME-3M melanoma): 2420 nM
- GI50 (TK-10 renal): 2550 nM
- TGI (TK-10 renal): 9900 nM
- GI50 (EKVX NSCLC): 994 nM
- TGI (EKVX NSCLC): 9920 nM
- GI50 (K-562 leukemia): 408 nM
- TGI (K-562 leukemia): > 100000 nM
- GI50 (M14 melanoma): 536 nM
- TGI (M14 melanoma): 2550 nM
- GI50 (HCT-116 colon): 504 nM
- TGI (HCT-116 colon): 2170 nM
- GI50 (NCI-H522 lung): 2010 nM
- TGI (NCI-H522 lung): 4580 nM
- GI50 (ACHN renal): 907 nM
- TGI (ACHN renal): 11200 nM
- GI50 (HCT-15 colon): 1000 nM
- TGI (HCT-15 colon): 2740 nM
- GI50 (MCF7 breast): 402 nM
- TGI (MCF7 breast): 1920 nM
- GI50 (CAKI-1 renal): 597 nM
- TGI (CAKI-1 renal): 4000 nM
- GI50 (MDA-MB-435): 715 nM
- TGI (MDA-MB-435): 3670 nM
- GI50 (RPMI-8226 leukemia): 199 nM
- TGI (RPMI-8226 leukemia): 609 nM
- GI50 (786-0 renal): 198 nM
- TGI (786-0 renal): 610 nM
- GI50 (CCRF-CEM leukemia): 431 nM
- TGI (CCRF-CEM leukemia): 3300 nM
- GI50 (HT29 colon): 1200 nM
- TGI (HT29 colon): 3260 nM
- GI50 (IGROV1 ovarian): 1750 nM
- TGI (IGROV1 ovarian): 12900 nM
- GI50 (OVCAR-8 ovarian): 2020 nM
- TGI (OVCAR-8 ovarian): > 27100 nM
- GI50 (T-47D breast): 1970 nM
- TGI (T-47D breast): 12100 nM
- GI50 (HCC-2998 colon): 2230 nM
- TGI (HCC-2998 colon): 7260 nM
- GI50 (SW-620 colon): 657 nM
- TGI (SW-620 colon): 2230 nM
- GI50 (NCI-H23 lung): 1240 nM
- TGI (NCI-H23 lung): 5160 nM
- GI50 (OVCAR-3 ovarian): 1850 nM
- TGI (OVCAR-3 ovarian): 6150 nM
- GI50 (OVCAR-4 ovarian): 1900 nM
- TGI (OVCAR-4 ovarian): 13800 nM
- GI50 (UO-31 renal): 378 nM
- TGI (UO-31 renal): 1620 nM
- GI50 (SN12C renal): 2520 nM
- TGI (SN12C renal): 10500 nM
- GI50 (A498 renal): 376 nM
- TGI (A498 renal): 1120 nM
- GI50 (NCI/ADR-RES ovarian): 1860 nM
- TGI (NCI/ADR-RES ovarian): 6940 nM
- GI50 (HS 578T breast): 265 nM
- TGI (HS 578T breast): 986 nM
- GI50 (A549 NSCLC): 1350 nM
- TGI (A549 NSCLC): 12300 nM
- GI50 (SNB-19 CNS): 1220 nM
- TGI (SNB-19 CNS): 4830 nM
- GI50 (KM12 colon): 1050 nM
- TGI (KM12 colon): 4510 nM
- GI50 (COLO 205 colon): 1490 nM
- TGI (COLO 205 colon): 3680 nM
- GI50 (NCI-H460 lung): 652 nM
- TGI (NCI-H460 lung): 5290 nM
- GI50 (UACC-257 melanoma): 947 nM
- TGI (UACC-257 melanoma): 3350 nM
- GI50 (SF-539 CNS): 203 nM
- TGI (SF-539 CNS): 646 nM
- GI50 (SF-295 CNS): 184 nM
- TGI (SF-295 CNS): 411 nM
- GI50 (SK-OV-3 ovarian): 717 nM
- TGI (SK-OV-3 ovarian): 3300 nM
- GI50 (OVCAR-5 ovarian): 2130 nM
- TGI (OVCAR-5 ovarian): 6760 nM
- GI50 (SK-MEL-28 melanoma): 254 nM
- TGI (SK-MEL-28 melanoma): 727 nM
- GI50 (NCI-H226 lung): 2160 nM
- TGI (NCI-H226 lung): 8320 nM
- GI50 (SNB-75 CNS): 332 nM
- TGI (SNB-75 CNS): 3450 nM
